Here are results for 16 compounds from patent US20230212180A1, “SUBSTITUTED PYRAZINE COMPOUND, PHARMACEUTICAL COMPOSITION COMPRISING SAME, AND USE THEREOF” (Sichuan Kelun-Biotech Biopharmaceutical Co., Ltd., priority 2020, published 2023).

A word on the IC50: it is the concentration that gives 50% inhibition.

Assay [1] concerns the target T1, recombinant full-length human PTPN11 (SHP2) (Homo sapiens, UniProt Q06124).
T1 construct: recombinant full-length human PTPN11 (SHP2), active (SignalChem); purchased SignalChem
T1 sequence (Q06124 1-593): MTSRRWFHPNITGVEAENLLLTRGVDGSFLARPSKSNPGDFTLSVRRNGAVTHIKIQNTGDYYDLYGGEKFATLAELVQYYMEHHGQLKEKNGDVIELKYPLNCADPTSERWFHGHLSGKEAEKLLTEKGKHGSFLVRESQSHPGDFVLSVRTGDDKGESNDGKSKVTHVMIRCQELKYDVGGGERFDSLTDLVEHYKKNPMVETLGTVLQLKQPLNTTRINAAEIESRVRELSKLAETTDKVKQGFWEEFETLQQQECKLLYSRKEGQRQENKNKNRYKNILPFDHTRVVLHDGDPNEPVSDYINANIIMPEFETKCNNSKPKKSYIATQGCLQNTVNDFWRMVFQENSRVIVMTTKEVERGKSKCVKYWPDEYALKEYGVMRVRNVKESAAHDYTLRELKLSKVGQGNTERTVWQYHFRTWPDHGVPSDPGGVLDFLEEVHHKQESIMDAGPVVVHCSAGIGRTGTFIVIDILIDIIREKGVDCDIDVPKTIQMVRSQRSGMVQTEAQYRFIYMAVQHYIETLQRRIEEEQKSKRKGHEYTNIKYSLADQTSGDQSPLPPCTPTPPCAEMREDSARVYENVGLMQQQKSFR
Put plainly: Inhibition of in vitro enzyme activity of SHP2 (DiFMUP fluorescence endpoint assay). The assay is classed as biochemical. The conditions noted are these: SHP2 0.5 nM, DiFMUP 200 μM, IRS-1 0.5 μM; 60 min incubation. As for the experimental part: Test Example 1: Experiment on the Inhibition of In Vitro Enzyme Activity of SHP2 (Protein Phosphatase)
phosphatase: recombinant full-length human PTPN11 (SHP2), active (SignalChem);
substrate: 6,8-difluoro-4-methylumbelliferyl phosphate (DiFMUP) (Invitrogen);
activating peptide: IRS1_pY1172(dPEG8)pY1222 (IRS1) (BPS Bioscience);
terminator: bpv(phen) (bpv) (Abcam).
SHP2 concentration: 0.5 nM;
DiFMUP concentration: 200 μM;
IRS-1 concentration: 0.5 μM;
bpv concentration: 160 μM;
buffer systems: 60 mM Hepes pH 7.2; 75 mM NaCl; 75 mM KCl; 0.05% surfactant P20; 1 mM EDTA; 5 mM DTT;
incubation duration of compound and enzyme: 60 minutes;
reaction time of enzyme and substrate: 30 minutes;
parameters for microplate reader: BMG PHERAstar fluorescence microplate reader at an excitation wavelength of 340 nm and an emission wavelength of 450 nm.
Test group: A mixture of the test compound and the phosphatase SHP2 together with the activating peptide IRS-1 were incubated in the buffer system at room temperature for 60 minutes. The substrate DiFMUP was added to initiate the reaction and incubated at room temperature for 30 minutes. Thereafter, bpv was added to terminate the reaction. The reaction plate was placed in the microplate reader, and the fluorescence intensities of the wells in the plate were measured using an endpoint assay.
Negative group: The experimental method for the negative group was the same as that for the test group, except that the test compound was substituted with 0.05% aqueous solution of DMSO.
Blank group: The experimental method for the blank group was the same as that for the test group, except that the test compound was substituted with 0.05% aqueous solution of DMSO and that SHP2 was not added.
The relative inhibitory activity was calculated for the test group at each concentration based on the following equation: inhibition rate (%)=100%−(the fluorescence intensity of the test group−the fluorescence intensity of the blank group)/(the fluorescence intensity of the negative group−the fluorescence intensity of the blank group)×100%. The half maximal inhibitory concentration (IC50) of the compound was calculated by fitting the curve according to the four-parameter logistic model.

The test system of assay [2] is NCI-H358 cell (human non-small cell lung cancer cell). Put plainly: Inhibition of the proliferation activity of NCI-H358 cell (CellTiter-Glo). The conditions noted are these: 120 h, 5 days. In kind it is cell-based. The procedure:
Test Example 4: Experiment on the Inhibition of the Proliferation Activity of NCI-H358 Cell (Human Non-Small Cell Lung Cancer Cell)
cell: NCI-H358 (Nanjing CoBioer);
kit: CellTiter-Glo® Luminescent Cell Viability Assay Kit (Promega).
inoculation amount of cell: 1500 cells/well;
incubation conditions for compounds: 37° C., 5% CO2;
incubation duration: 5 days;
detecting temperature: room temperature;
chemiluminescence detection using the BMG PHERAstar FS reader.
Cells were cultured in a medium containing 10% fetal bovine serum under the culture conditions of 37° C. and 5% CO2. An appropriate amount of cells were plated into a 96-well plate and cultured overnight in an incubator to allow the cells to adhere to the wall. The following day, the medium was removed and a complete medium containing a pre-diluted compound was added and incubated at 37° C. for 5 days. On the fifth day, the detection reagent CellTiter-Glo® was added into each well. Chemiluminescence was adopted to detect the relative luminescence units (RLUs) of the wells.
The result of a well containing cell-free medium, treated with CellTiter-Glo®, was obtained as the blank value. Cell viability (%)=(sample RLU−blank RLU)/(vehicle RLU−blank RLU)×100%, and maximum inhibition rate (%)=100%−cell viabilitymax. conc. (%). The half maximal inhibitory concentration (IC50) of the compound was calculated by fitting the curve according to the four-parameter logistic model.
On the technique in general: ATP-based viability assays read luminescence as a measure of living cells.

On to `C[C@@H]1OCC2(CCN(c3ncc(Sc4ccnc(N5CCCC5CC(N)=O)c4Cl)nc3CO)CC2)[C@@H]1N` (stereo partly drawn) [Example 19, 2-(1-(4-(5-((3S,4S)-4-amino-3-methyl-2-oxa-8-azaspiro[4.5]decan-8-yl)-6-(hydroxymethyl)pyrazin-2-ylthio)-3-chloropyridin-2-yl)pyrrolidin-2-yl)acetamide], for which the IC50 amounted to 1.5 nM in assay [1] and 220 nM in assay [2].
As for `CC(C)(O)C1CN(c2nccc(Sc3cnc(N4CCC5(CC4)Oc4ccccc4[C@H]5N)c(CO)n3)c2Cl)C1` [Example 22, (R)-2-(1-(4-(5-(3-amino-3H-spiro[benzofuran-2,4′-piperidin]-1′-yl)-6-(hydroxymethyl)pyrazin-2-ylthio)-3-chloropyridin-2-yl)azetidin-3-yl)propan-2-ol], the values for the half-inhibitory concentration (IC50) in assay [1] and in assay [2] were 4.3 nM and 31 nM, respectively.
Consider `Cc1nc(N2CCC3(CC2)CO[C@@H](C)[C@H]3N)c(CO)nc1Sc1ccnc(N2CCCC2CO)c1Cl` (stereo partly shown) [Example 1], for which the concentration for half-maximal inhibition (IC50) in assay [1] came out at 6.03 nM.
As to `CC(O)C1CN(c2nccc(Sc3cnc(N4CCC5(CC4)CO[C@@H](C)[C@H]5N)c(CO)n3)c2Cl)C1` (stereo partly drawn) [Example 17, 1-(1-(4-(5-((3S,4S)-4-amino-3-methyl-2-oxa-8-azaspiro[4.5]decan-8-yl)-6-(hydroxymethyl)pyrazin-2-ylthio)-3-chloropyridin-2-yl)azetidin-3-yl)ethan-1-ol], the IC50 in assay [1] was 2.5 nM; in assay [2] it was 39 nM.
The like results for `C[C@@H]1OCC2(CCN(c3ncc(Sc4ccnc(N5CC(CC#N)C5)c4Cl)nc3CO)CC2)[C@@H]1N` [Example 5, 2-(1-(4-(5-((3S,4S)-4-amino-3-methyl-2-oxa-8-azaspiro[4.5]decan-8-yl)-6-(hydroxymethyl)pyrazin-2-ylthio)-3-chloropyridin-2-yl)azetidin-3-yl)acetonitrile] were, in that order, 1.22 nM and 34 nM.
As for `Cc1nc(N2CCC3(CC2)CO[C@@H](C)[C@H]3N)c(CO)nc1Sc1ccnc(N2CC(CS(C)(=O)=O)C2)c1Cl` [Example 25, (3-((3S,4S)-4-amino-3-methyl-2-oxa-8-azaspiro[4.5]decan-8-yl)-6-(3-chloro-2-(3-(methylsulfonylmethyl)azetidin-1-yl)pyridin-4-ylthio)-5-methylpyrazin-2-yl)methanol], the IC50 in assay [1] stood at 7 nM; in assay [2] it was 150 nM.
`C[C@@H]1OCC2(CCN(c3cnc(Sc4ccnc(N5CC(C(C)(C)O)C5)c4Cl)cn3)CC2)[C@@H]1N` [Example 28, 2-(1-(4-(5-((3S,4S)-4-amino-3-methyl-2-oxa-8-azaspiro[4.5]decan-8-yl)pyrazin-2-ylthio)-3-chloropyridin-2-yl)azetidin-3-yl)propan-2-ol]: the 50% inhibitory concentration (IC50) amounted to 2.45 nM in assay [1] and 130 nM in assay [2].
On the same counts, the results for `C[C@@H]1OCC2(CCN(c3ncc(Sc4ccnc(N5CC(CO)C5)c4Cl)nc3CO)CC2)[C@@H]1N` [Example 6, (3-((3S,4S)-4-amino-3-methyl-2-oxa-8-azaspiro[4.5]decan-8-yl)-6-(3-chloro-2-(3-(hydroxymethyl)azetidin-1-yl)pyridin-4-ylthio)pyrazin-2-yl)methanol] are 1.76 nM and 74 nM.
On the same counts, the results for `COCC1CN(c2nccc(Sc3cnc(N4CCC5(CC4)CO[C@@H](C)[C@H]5N)c(CO)n3)c2Cl)C1` [Example 21, (3-((3S,4S)-4-amino-3-methyl-2-oxa-8-azaspiro[4.5]decan-8-yl)-6-(3-chloro-2-(3-(methoxymethyl)azetidin-1-yl)pyridin-4-ylthio)pyrazin-2-yl)methanol] are 1.15 nM and 30 nM.
On the same counts, the results for `C[C@@H]1OCC2(CCN(c3ncc(Sc4ccnc(NCC5(O)CC5)c4Cl)nc3CO)CC2)[C@@H]1N` [Example 15, 1-((4-(5-((3S,4S)-4-amino-3-methyl-2-oxa-8-azaspiro[4.5]decan-8-yl)-6-(hydroxymethyl)pyrazin-2-ylthio)-3-chloropyridin-2-ylamino)methyl)cyclopropan-1-ol] are 2.4 nM and 40 nM.
On to `C[C@@H]1OCC2(CCN(c3ncc(Sc4ccnc(N5CC(CS(C)(=O)=O)C5)c4Cl)nc3CO)CC2)[C@@H]1N` [Example 26, (3-((3S,4S)-4-amino-3-methyl-2-oxa-8-azaspiro[4.5]decan-8-yl)-6-(3-chloro-2-(3-(methylsulfonylmethyl)azetidin-1-yl)pyridin-4-ylthio)pyrazin-2-yl)methanol], for which the IC50 is 0.7 nM in assay [1] and 32 nM in assay [2].
As to `C[C@@H]1OCC2(CCN(c3ncc(Sc4ccnc(N5CC(C)(CO)C5)c4Cl)nc3CO)CC2)[C@@H]1N` [Example 27, (3-((3S,4S)-4-amino-3-methyl-2-oxa-8-azaspiro[4.5]decan-8-yl)-6-(3-chloro-2-(3-(hydroxymethyl)-3-methylazetidin-1-yl)pyridin-4-ylthio)pyrazin-2-yl)methanol], the figures for the IC50 in assay [1] and in assay [2] were 4.1 nM and 30 nM, respectively.
Turning to `C[C@@H]1OCC2(CCN(c3ncc(Sc4ccnc(N5CC(C(C)(C)O)C5)c4F)nc3CO)CC2)[C@@H]1N` [Example 40, 2-(1-(4-(5-((3S,4S)-4-amino-3-methyl-2-oxa-8-azaspiro[4.5]decan-8-yl)-6-(hydroxymethyl)pyrazin-2-ylthio)-3-fluoropyridin-2-yl)azetidin-3-yl)propan-2-ol], the half-maximal inhibitory concentration (IC50) was 4.13 nM in assay [1] and 30 nM in assay [2].
On the same counts, the results for `CC(C)(O)C1CN(c2nccc(Sc3cnc(N4CCC5(CC4)Cc4ncccc4[C@H]5N)c(CO)n3)c2Cl)C1` [Example 43, (S)-2-(1-(4-(5-(5-amino-5,7-dihydrospiro[cyclopenta[b]pyridine-6,4′-piperidin]-1′-yl)-6-(hydroxymethyl)pyrazin-2-ylthio)-3-chloropyridin-2-yl)azetidin-3-yl)propan-2-ol] are 2.6 nM and 8 nM.
The like results for `CC(C)(O)C1CN(c2nccc(Sc3cnc(N4CCC5(CC4)COC[C@H]5N)c(CO)n3)c2Cl)C1` [Example 13, (S)-2-(1-(4-(5-(4-amino-2-oxa-8-azaspiro[4.5]decan-8-yl)-6-(hydroxymethyl)pyrazin-2-ylthio)-3-chloropyridin-2-yl)azetidin-3-yl)propan-2-ol] were, in that order, 4.9 nM and 260 nM.
`C[C@@H]1OCC2(CCN(c3ncc(Sc4ccnc(N5CC(C#N)(CO)C5)c4Cl)nc3CO)CC2)[C@@H]1N` [Example 47, 1-(4-(5-((3S,4S)-4-amino-3-methyl-2-oxa-8-azaspiro[4.5]decan-8-yl)-6-(hydroxymethyl)pyrazin-2-ylthio)-3-chloropyridin-2-yl)-3-(hydroxymethyl)azetidine-3-carbonitrile]: the concentration for half-maximal inhibition (IC50) in assay [1] is 3.2 nM; in assay [2], 23 nM.
